According to article PMC9235362 (Journal of medicinal chemistry, 2021):

Experiments:
human 5-HT2B receptors [1] = target: T1, human 5-HT2B receptors (Homo sapiens, UniProt P41595); experiment: 5-HT2B receptor phosphoinositide hydrolysis; type: cell-based; settings: for 5-HT2B E/Imax (Imax): Imax is the percent maximum SB 206553, inverse agonist, response, value (SEM), N.A. = no activation or inactivation up to 30 μM; for In vitro functional activity at human 5-HT2BRs: phosphoinositide hydrolysis assay
hMOR = settings: BRET G protein activation assay, cited from earlier work
human 5-HT1A receptor = settings: read-out: Ki human 5-HT1A receptor orthosteric binding site; cited from earlier work
human 5-HT1ARs [2] = target: T2, human 5-HT1ARs (Homo sapiens, UniProt P08908); experiment: Radioligand competition binding at human 5-HT1ARs; settings: present study versus 540 nM of ref 13
T2 sequence (P08908 1-422): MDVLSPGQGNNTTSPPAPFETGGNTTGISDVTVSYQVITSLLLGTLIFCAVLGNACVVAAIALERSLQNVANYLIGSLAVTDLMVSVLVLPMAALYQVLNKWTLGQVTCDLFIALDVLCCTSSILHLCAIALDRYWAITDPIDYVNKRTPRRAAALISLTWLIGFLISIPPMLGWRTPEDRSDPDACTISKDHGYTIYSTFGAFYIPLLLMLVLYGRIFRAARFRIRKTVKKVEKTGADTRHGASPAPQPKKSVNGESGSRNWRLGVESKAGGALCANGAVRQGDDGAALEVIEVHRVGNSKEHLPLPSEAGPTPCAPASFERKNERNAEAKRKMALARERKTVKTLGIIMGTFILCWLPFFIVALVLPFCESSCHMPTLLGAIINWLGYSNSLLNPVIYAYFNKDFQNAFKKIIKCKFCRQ

human 5-HT1ARs [3] = target: T2, human 5-HT1ARs; experiment: In vitro 5-HT1A receptor cAMP signaling; type: cell-based; settings: for 5-HT1A E/Imax: Emax is the percent maximum serotonin, agonist, response, value (SEM), N.A. = no activation or inactivation up to 30 μM
5-HT3Rs = target: T3, 5-HT3Rs (Homo sapiens, UniProt P46098); experiment: Radioligand competition binding at 5-HT3Rs
T3 sequence (P46098 24-478): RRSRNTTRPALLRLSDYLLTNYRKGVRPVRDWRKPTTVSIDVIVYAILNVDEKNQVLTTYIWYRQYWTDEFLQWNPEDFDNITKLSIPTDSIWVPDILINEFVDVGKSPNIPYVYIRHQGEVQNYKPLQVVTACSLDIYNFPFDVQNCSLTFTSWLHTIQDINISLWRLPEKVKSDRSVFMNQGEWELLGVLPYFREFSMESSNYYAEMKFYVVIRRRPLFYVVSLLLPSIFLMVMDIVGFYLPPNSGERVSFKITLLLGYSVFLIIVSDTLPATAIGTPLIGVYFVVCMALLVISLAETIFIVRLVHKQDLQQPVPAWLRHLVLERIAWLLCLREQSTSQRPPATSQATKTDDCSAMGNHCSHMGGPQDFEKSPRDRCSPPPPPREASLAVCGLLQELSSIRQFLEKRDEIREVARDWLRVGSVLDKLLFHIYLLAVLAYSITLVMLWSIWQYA

human 5-HT2B receptors [4] = target: T1, human 5-HT2B receptors; type: binding; settings: 100 nM alkaloid; [125I](±)DOI; CHO-K1 cells
[5] = i.v., male rats
5-HT1A receptors = settings: cited from earlier work
adrenergic α1D receptors = settings: read-out: Ki adrenergic α1D receptors; cited from earlier work

T1 sequence (P41595 whole entry): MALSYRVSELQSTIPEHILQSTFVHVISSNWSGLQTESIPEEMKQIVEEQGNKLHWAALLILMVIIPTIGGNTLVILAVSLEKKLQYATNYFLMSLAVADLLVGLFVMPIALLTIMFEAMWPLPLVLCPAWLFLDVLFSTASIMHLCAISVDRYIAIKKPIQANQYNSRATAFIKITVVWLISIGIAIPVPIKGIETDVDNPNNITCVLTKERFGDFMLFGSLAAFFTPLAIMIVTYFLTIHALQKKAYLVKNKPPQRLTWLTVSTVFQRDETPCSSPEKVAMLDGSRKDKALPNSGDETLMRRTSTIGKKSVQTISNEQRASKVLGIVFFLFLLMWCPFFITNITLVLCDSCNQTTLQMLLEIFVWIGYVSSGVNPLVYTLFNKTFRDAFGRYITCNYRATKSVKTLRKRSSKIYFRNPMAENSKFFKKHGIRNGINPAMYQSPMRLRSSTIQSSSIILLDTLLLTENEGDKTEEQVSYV

Compound: CC[C@H]1CN2CCc3c([nH]c4cccc(OC)c34)[C@@H]2C[C@@H]1/C(=C\OC)C(=O)OC [speciogynine, Methyl(E)-2-((2S,3R,12bS)-3-ethyl-8-methoxy-1,2,3,4,6,7,12,12b-octahydroindolo[2,3-a]quinolizin-2-yl)-3-methoxyacrylate]
- EC50 (human 5-HT2B receptors [1]): 2.02 µM
- 5-HT2B E/Imax (Imax) (human 5-HT2B receptors [1]): 24.8 (6.9) %
- In vitro functional activity at human 5-HT2BRs (human 5-HT2B receptors [1]): no agonist activity
- Functional activity at hMOR (hMOR): low-potency, competitive antagonists
- Ki (human 5-HT1A receptor): 0.54 µM
- Affinity for 5-HT1ARs relative to previously reported value (human 5-HT1ARs [2]): > 10 fold

Compound: NCCc1c[nH]c2ccc(O)cc12 [serotonin, reference compound]
- 5-HT1A E/Imax (human 5-HT1ARs [3]): 100%

Compound: CC[C@@H]1CN2CCc3c([nH]c4cccc(OC)c34)[C@H]2C[C@@H]1/C(=C\OC)C(=O)OC [speciociliatine]
- Functional activity at hMOR (hMOR): low-potency, competitive antagonists

Compound: C=C[C@H]1CN2CCc3c([nH]c4cccc(OC)c34)[C@@H]2C[C@@H]1/C(=C\OC)C(=O)OC [paynantheine, Methyl(E)-3-methoxy-2-((2S,3R,12bS)-8-methoxy-3-vinyl-1,2,3,4,6,7,12,12b-octahydroindolo[2,3-a]quinolizin-2-yl)acrylate]
- Percent displacement of radioligand, 5-HT3 (5-HT3Rs; 100 nM alkaloid): −9.8%
- Percent displacement of radioligand, 5-HT3 (5-HT3Rs; 10,000 nM alkaloid): −0.8%
- In vitro functional activity at human 5-HT2BRs (human 5-HT2B receptors [1]): no agonist activity
- Functional activity at hMOR (hMOR): low-potency, competitive antagonists

Compound: CC[C@@H]1CN2CCc3c([nH]c4cccc(O)c34)[C@@H]2C[C@@H]1/C(=C\OC)C(=O)OC [9-hydroxycorynantheidine]
- Percent displacement of radioligand, 5-HT2B (human 5-HT2B receptors [4]): 5.2%
- Percent displacement of radioligand, 5-HT3 (5-HT3Rs; 100 nM alkaloid): −1.3%
- Percent displacement of radioligand, 5-HT3 (5-HT3Rs; 10,000 nM alkaloid): 7.3%

Compound: O=C1c2ccccc2S(=O)(=O)N1CCCCN1CCN(c2ncccn2)CC1 [ipsapirone, reference compound]
- 5-HT1A E/Imax (human 5-HT1ARs [3]): 82 (0.1) %

Compound: CC[C@@H]1CN2CCc3c([nH]c4cccc(OC)c34)[C@@H]2C[C@@H]1/C(=C\OC)C(=O)OC [mitragynine]
- Dose-normalized exposure (AUCinf/dose) relative to paynantheine [5]: 3.6 fold
- Dose-normalized exposure (AUCinf/dose) relative to speciogynine [5]: 1.7 fold

Compound: C/C=C1/CN2CCc3c([nH]c4ccccc34)[C@@H]2C[C@@H]1/C(=C/OC)C(=O)OC [Geissoschizine methyl ether]
- Activity at 5-HT1A receptors (5-HT1A receptors): potent antagonist

Compound: Methyl(4S,4aR,13bS,14aS)-4-methyl-4a,5,7,8,13,13b,14,14a-octahydro-4H-indolo[2,3-a]pyrano[3,4-g]quinolizine-1-carboxylate [ajmalicine]
- Percent displacement of radioligand, 5-HT2B (human 5-HT2B receptors [4]): 6.2%
- Percent displacement of radioligand, 5-HT3 (5-HT3Rs; 100 nM alkaloid): −2.5%
- Percent displacement of radioligand, 5-HT3 (5-HT3Rs; 10,000 nM alkaloid): 1.8%
- Ki (human 5-HT1A receptor): 0.42 µM

Compound: CC[C@@H]1CN2CCc3c([nH]c4ccccc34)[C@@H]2C[C@@H]1/C(=C\OC)C(=O)OC [corynantheidine]
- Percent displacement of radioligand, 5-HT2B (human 5-HT2B receptors [4]): 14.8%
- Percent displacement of radioligand, 5-HT3 (5-HT3Rs; 100 nM alkaloid): 6.2%
- Percent displacement of radioligand, 5-HT3 (5-HT3Rs; 10,000 nM alkaloid): 6.8%
- Ki (adrenergic α1D receptors): 0.041 µM

Compound: Cn1ccc2cc3c(cc21)CCN3C(=O)Nc1cccnc1 [SB 206553, reference compound]
- EC50 (human 5-HT2B receptors [1]): 0.0153 µM
- 5-HT2B E/Imax (Imax) (human 5-HT2B receptors [1]): 100%

Compound: CC[C@H]1CN2CCc3c([nH]c4cccc(O)c34)[C@@H]2C[C@@H]1/C(=C\OC)C(=O)OC [9-O-desmethylspeciogynine (gambirine), Methyl(E)-2-((2S,3R,12bS)-3-ethyl-8-hydroxy-1,2,3,4,6,7,12,12b-octahydroindolo[2,3-a]quinolizin-2-yl)-3-methoxyacrylate]
- EC50 (human 5-HT1ARs [3]): 0.838 µM
- 5-HT1A E/Imax (human 5-HT1ARs [3]): 99 (0.08) %
- EC50 (human 5-HT2B receptors [1]): 1.47 µM
- 5-HT2B E/Imax (Imax) (human 5-HT2B receptors [1]): 45 (14.3) %

Compound: C=C[C@H]1CN2CCc3c([nH]c4cccc(O)c34)[C@@H]2C[C@@H]1/C(=C\OC)C(=O)OC [9-O-desmethylpaynantheine (gambireine), Methyl(E)-2-((2S,3R,12bS)-8-hydroxy-3-vinyl-1,2,3,4,6,7,12,12b-octahydroindolo[2,3-a]quinolizin-2-yl)-3-methoxyacrylate]
- EC50 (human 5-HT1ARs [3]): 0.865 µM
- 5-HT1A E/Imax (human 5-HT1ARs [3]): 100 (0.08) %
- EC50 (human 5-HT2B receptors [1]): 2.34 µM
- 5-HT2B E/Imax (Imax) (human 5-HT2B receptors [1]): 38 (10.3) %
